According to PubChem BioAssay (NCI):
Where “and” joins values, the source holds several entries; their conditions need not be identical. Equal values may be shown once.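 A five-concentration, 48-hour dose response in 96-well plates underlies each endpoint, interpolated linearly between surrounding concentrations. GI50 marks 50% less growth. TGI: total growth inhibition.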

Columns and labels:
Assay in all cases: DTP human tumour cell line panel, 48 h
UACC-62 melanoma = system: UACC-62 melanoma
HS 578T breast = system: HS 578T breast
U251 CNS = system: U251 CNS
CCRF-CEM leukemia = system: CCRF-CEM leukemia
SR leukemia = system: SR leukemia
PC-3 prostate = system: PC-3 prostate
OVCAR-8 ovarian = system: OVCAR-8 ovarian
COLO 205 colon = system: COLO 205 colon
ACHN renal = system: ACHN renal
SK-MEL-2 melanoma = system: SK-MEL-2 melanoma

Structure (SMILES)	GI50 (UACC-62 melanoma)	TGI (UACC-62 melanoma) [µM]	GI50 (HS 578T breast)	TGI (HS 578T breast) [µM]	GI50 (U251 CNS)	TGI (U251 CNS) [µM]	GI50 (CCRF-CEM leukemia) [µM]	TGI (CCRF-CEM leukemia) [µM]	GI50 (SR leukemia)	TGI (SR leukemia) [µM]	GI50 (PC-3 prostate)	TGI (PC-3 prostate) [µM]	GI50 (OVCAR-8 ovarian) [µM]	TGI (OVCAR-8 ovarian) [µM]	GI50 (COLO 205 colon)	TGI (COLO 205 colon) [µM]	GI50 (ACHN renal) [µM]	TGI (ACHN renal) [µM]	GI50 (SK-MEL-2 melanoma)	TGI (SK-MEL-2 melanoma) [µM]
COc1ccccc1-n1cnc(N)c1C(=O)c1cc(OC)c(OC)c(OC)c1	1.88 µM	> 100	2.16 µM	7.69	3.74 µM	> 100	2.69	> 100	1.92 µM	> 100	3.51 µM	> 100	5.85	> 100	4.5 µM	40.3	5.19	> 100	–	–
OCC#CCOCC#Cc1ccccc1C#CCOCC#CCO	25.8 µM	75.1	> 100 µM	> 100	–	–	18.5	57.1	18.5 µM	> 100	22.5 µM	> 100	43.8	> 100	–	–	27.8	85.8	> 100 µM	> 100
CNC(=O)c1cc(Oc2ccc3nc(NC(=O)Nc4ccc(CN5CCOCC5)c(C(F)(F)F)c4)sc3c2)ccn1	1.44 µM	4.58	2.55 µM	9.6	1.77 µM	3.54	2.73	> 100	–	–	2.04 µM	6.22	2.63	7.71	2.1 µM	4.58	1.68	4.21	2.74 µM	7.81
Nc1nc(N)c2c(n1)NC(c1sc(Cl)nc1Cl)CC(c1ccccc1)=N2 (centres undefined)	3.05 µM	13.9	2.44 µM	11.1	–	–	3.21	16.9	2.25 µM	8.86	5.89 µM	24	4.8	22.2	4.18 µM	15.4	4.56	16.8	2.98 µM	10.9
CCN(C(=O)N1CCN(c2cc3c(cc2F)c(=O)c(C(=O)O)cn3C2CC2)CC1)c1nc(-c2ccccc2)cs1	2.05 µM	5.62	3.16 µM	25.9	3.25 µM	22.9	–	–	1.54 µM	9.92	2.74 µM	> 100	3.33	> 100	2.58 µM	7.1	1.69	9.47	2.02 µM	4.64
O=C1Cc2c(-c3ccccc3)cc(-c3ccccc3)nc2-c2ccccc2N1	–	25.7	–	19	–	20	–	> 100	–	–	–	42.9	–	21	–	63.7	4.04	19	–	7.27
CC(=O)N[C@H](C)[C@@H](O)[C@@H](C)[C@@H]1OC(=O)/C=C/C=C(C)\C=C\[C@]2(C)C[C@@H](NS(C)(=O)=O)C=C[C@@H]2/C=C(C)/C=C/[C@H]1C	0.00725 µM and 0.0278 µM	> 43.5	0.0158 µM and 0.0164 µM	> 43.5	0.00368 µM and 0.00435 µM	> 43.5	–	–	0.00606 µM and 0.00719 µM	> 43.5	0.00714 µM and 0.0129 µM	> 43.5	0.017	> 43.5	0.00692 µM and 0.0199 µM	> 43.5	0.0125	> 43.5	3.88 µM and 24.1 µM	> 43.5
O=C(Nc1ccc(OS(=O)(=O)c2ccc(F)cc2)cc1)C12CC3CC(CC(C3)C1)C2	6.44 µM	> 65	5.9 µM	> 53.2	18 µM	> 100	–	–	2.03 µM	> 100	0.647 µM	> 100	18.1	> 100	0.434 µM	> 100	14.6	> 100	12.9 µM	39.3
COc1ccc(C(=O)/C=C/c2sc(Cl)nc2Cl)cc1	2.22 µM	6.19	3.29 µM	18.6	1.68 µM	3.83	0.267	14.7	–	–	2.83 µM	11.6	1.05	13.9	2.28 µM	6.74	1.66	3.05	11.1 µM	35.5
COC(=O)c1cc(-c2ccc3ccccc3c2)[nH]c(=O)c1C#N	–	> 100	–	> 100	–	> 100	–	–	–	> 100	–	> 100	–	> 100	–	> 100	–	> 100	–	> 100
Cc1cc(S(=O)(=O)/N=C(\N)Nc2cccc(O)c2)c(SCc2ccccc2)cc1Cl	14.1 µM	30.2	24.4 µM	82.9	18.9 µM	48.6	–	–	16.2 µM	> 100	12.1 µM	> 100	24.3	87.1	28.8 µM	> 100	18.2	39.4	15.7 µM	34.9
CCOC(=O)/C(=C/CC/C(C)=C/CC/C(C)=C/CCc1ccoc1)CC(=O)N1CCCCC1	2.8 µM	12.7	5.07 µM	35.2	–	–	3.56	22.5	3.11 µM	16	3.1 µM	17.9	3.97	40.2	2.32 µM	6.05	2.93	10.3	2.04 µM	4
C=C1CCC2CC1C(C(=O)c1c[nH]c3ccccc13)=NC2(C)C (centres undefined)	–	> 100	–	> 100	–	> 100	–	> 100	–	> 100	–	> 100	–	> 100	–	> 100	–	> 100	–	–
Cc1c2cnccc2c(C)c2c1c1cc(O)ccc1n2C(C)C	1.37 µM	4.28	1.23 µM	4.55	1.77 µM	6.51	1.33	5.81	–	–	1.12 µM	3.71	0.972	6.18	2.36 µM	6.02	0.285	1.77	0.797 µM	2.58
CC(C)C[C@H](CC(=O)O)C(=O)N[C@@H](Cc1c[nH]c2ccccc12)C(=O)N[C@@H](C)c1ccccc1	> 25 µM	> 25	> 25 µM	> 25	> 25 µM	> 25	> 25	> 25	–	–	> 25 µM	> 25	> 25	> 25	> 25 µM	> 25	> 25	> 25	> 25 µM	> 25
O=C(NC1CCN(Cc2ccccc2)CC1)c1cc(-c2cccnc2)nc2ccc(Cl)cc12	17.4 µM	> 100	9.9 µM	39.4	6.94 µM	22.5	–	–	2.71 µM	12.9	6.16 µM	> 100	10.4	35.4	5.28 µM	> 100	2.36	6.54	–	–
CCn1cnc(C[C@H](NC(=O)[C@H](CCCCNC(=O)Nc2cc(C(F)(F)F)cc(C(F)(F)F)c2)NC(=O)Nc2cc(C(F)(F)F)cc(C(F)(F)F)c2)C(=O)OC)c1	> 10 µM	> 10	4.49 µM	> 10	3.8 µM	> 10	3.04	> 10	–	–	2.82 µM	> 10	5.02	> 10	> 10 µM	> 10	5.61	> 10	> 10 µM	> 10
COc1ccc2[nH]c(Cl)c(/C=C3/C(=O)Nc4ccccc43)c2c1	1.11 µM	2.51	0.837 µM	4.31	0.861 µM	2.75	0.216	0.737	–	–	0.676 µM	6.84	0.498	–	0.427 µM	3.25	0.786	5.85	1.2 µM	> 30.8
N#CCc1c(F)c(F)c(F)c(F)c1F	–	> 100	–	> 100	–	> 100	–	> 100	–	> 100	–	> 100	–	> 100	–	> 100	–	> 100	–	–
Oc1ccc2ccccc2c1CCc1c(O)ccc2ccccc12	–	21.2	–	45.1	–	26	–	25.2	–	32.6	–	26.9	–	27.6	–	29.1	–	30	–	–
O=c1cc(-c2ccc(Cl)cc2)[nH]c2ccccc12	37.4 µM	> 100	28.9 µM	> 100	41.5 µM	> 100	–	–	4.76 µM	> 100	35.2 µM	> 100	> 100	> 100	35.1 µM	> 100	57.8	> 100	> 100 µM	> 100
